Measured values as given in ChEMBL document CHEMBL3045967, “Discovery of imidazole glycerol phosphate dehydratase inhibitors through 3-D database searching” (Bioorg Med Chem Lett, 2002).
Activity calls are given as the source filed them. The calls are words filed in the database; no cut-off is given here.

Molecular target: Histidine biosynthesis bifunctional protein HisB (Escherichia coli O26:H11 str. CFSAN001629) (UniProt P06987)
Experiment: (§1) Inhibition of Escherichia coli imidazoleglycerol phosphate dehydratase using imidazole glycerol phosphate as substrate incubated for 30 min prior to substrate addition measured for 16 min by spectrophotometric analysis

Sequence of Histidine biosynthesis bifunctional protein HisB (Escherichia coli O26:H11 str. CFSAN001629) (P06987 whole entry): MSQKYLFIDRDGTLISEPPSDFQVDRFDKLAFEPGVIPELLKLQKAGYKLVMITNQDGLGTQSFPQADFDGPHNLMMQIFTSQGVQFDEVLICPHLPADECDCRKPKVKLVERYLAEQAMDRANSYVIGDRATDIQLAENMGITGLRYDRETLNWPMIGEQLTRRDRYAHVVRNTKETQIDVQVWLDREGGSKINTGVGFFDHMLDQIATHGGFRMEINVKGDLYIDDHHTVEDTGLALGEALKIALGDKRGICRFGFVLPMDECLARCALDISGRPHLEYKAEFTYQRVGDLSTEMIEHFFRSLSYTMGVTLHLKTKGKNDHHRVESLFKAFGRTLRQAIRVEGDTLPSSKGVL

Question: `CCOC(=O)c1[nH]c(C)c(C(=O)OC)c1C` was tested. Which inhibition did it give?
Answer: Its inhibition is “inactive”.

Molecular target: Histidine biosynthesis bifunctional protein HisB (Escherichia coli O26:H11 str. CFSAN001629, UniProt P06987)
Experiment: as §1

Sequence of Histidine biosynthesis bifunctional protein HisB (P06987 whole entry): as above

Question: Which IC50 does the source give for `Cc1c(C=O)[nH]c(C(=O)OCc2ccccc2)c1C` here?
Answer: The IC50 was 8.9 µM.

Question: `CCc1c(C=O)[nH]c(C(=O)OCc2ccccc2)c1C` was tested. Which IC50 did it give?
Answer: The IC50 was 24 µM.

Question: With `O=Cc1[nH]c(C(=O)OCc2ccccc2)c(Cc2ccccc2)c1Cc1ccccc1` as the molecule, how does the IC50 read?
Answer: The IC50 was 4 µM.

Question: How did the IC50 turn out when `CCOC(=O)c1[nH]c(C=O)c(C(=O)OCC)c1C` was run?
Answer: The IC50 was 5.1 µM.

Question: `CCOC(=O)c1[nH]c(C=O)c(C(=O)OCC)c1CC` was tested. Which IC50 did it give?
Answer: Its IC50 is 5.6 µM.

Question: For `CCOC(=O)c1[nH]c(C=O)cc1C`, which IC50 is on record?
Answer: The IC50 was 9.2 µM.

Question: How did the IC50 turn out when `CCOC(=O)CCc1c(C(=O)OCC)[nH]c(C=O)c1CC(=O)OCC` was run?
Answer: Its IC50 is 12.6 µM.

Question: Which IC50 does the source give for `Cc1c(C=O)[nH]c(C=O)c1C` here?
Answer: The IC50 was 7.1 µM.

Question: `CCOC(=O)c1[nH]c(C=O)c(C)c1C` was tested. Which IC50 did it give?
Answer: Its IC50 is 17.6 µM.

Question: How did the IC50 turn out when `COC(=O)c1[nH]c(C=O)c(C(=O)OC)c1C(C)C` was run?
Answer: Its IC50 is 8.3 µM.
